In assay [1] the target is Bromodomain-containing protein 4 (Homo sapiens, UniProt O60885). The experiment in a line: Inhibition of BRD4 (unknown origin) by alpha-screen assay. On the technique in general: Bead proximity is the source of the signal in Alpha formats.
The subject of a further assay is MV4-11. The experiment in a line: Antiproliferative activity against human MV4-11 cells assessed as reduction in cell viability measured after 4 days by MTT assay. The class given is functional, cell-based. As to conditions: MV4-11, 96 h. (Tetrazolium assays rely on reduction of a dye to a coloured formazan, in cell work by metabolically active cells.)
Assay [2] concerns the target Serine/threonine-protein kinase PLK1 (Homo sapiens, UniProt P53350). The experiment in a line: Inhibition of recombinant full length human PLK1 using casein as substrate incubated for 40 mins in presence of [gamma-33P]-ATP by radiometric scintillation counting method.
Assay [3] relates to DU-145. The experiment in a line: Inhibition of colony formation in AR-negative human castration resistant DU-145 cells at 1 nM measured after 12 days by crystal violet staining based assay. The following applies: time 12.0 day. The assay is classed as functional, cell-based.
Assay [4] deals with VCaP. The assay can be described thus: Antiproliferative activity against AR-positive human VCaP cells assessed as reduction in cell viability measured after 4 days by MTT assay. The class given is functional, cell-based. As to conditions: 96 h.
The test system of assay [5] is DU-145. The assay can be described thus: Antiproliferative activity against negative human castration resistant DU-145 cells assessed as reduction in cell viability at 1 nM incubated for 3 days followed by compound washout and measured after 8 days. As to conditions: time 3.0 day. The assay is classed as functional, cell-based.
The subject of assay [6] is PC-3. The assay can be described thus: Inhibition of colony formation in AR-negative human castration resistant PC-3 cells at 1 nM measured after 12 days by crystal violet staining based assay. The class given is functional, cell-based. As to conditions: time 12.0 day.
Assay [7] concerns PC-3. The experiment in a line: Antiproliferative activity against AR-negative human castration resistant PC-3 cells assessed as reduction in cell viability measured after 4 days by MTT assay. The class given is functional, cell-based. As to conditions: PC-3, 96 h.
Assay [8] has as its system LNCaP. The experiment in a line: Antiproliferative activity against AR-positive harmone sensitive human LNCaP cells assessed as reduction in cell viability at 1 nM incubated for 3 days followed by compound washout and measured after 8 days. The assay is classed as functional. The following applies: 72 h, time 3 day.
The subject of assay [9] is CWR22R. The assay can be described thus: Induction of cell cycle arrest in AR-positive human 22Rv1 cells assessed as downregulation of cyclin D1 expression at 1 to 3 uM measured after 72 hrs by Western blot analysis. The class given is functional, cell-based. As to conditions: dose 1-3 µM.
The subject of assay [10] is CWR22R. The assay can be described thus: Induction of cell cycle arrest in AR-positive human 22Rv1 cells assessed as downregulation of CDK2 expression at 1 to 3 uM measured after 72 hrs by Western blot analysis. The class given is functional, cell-based. The following applies: dose 1-3 µM. A general note: In western blotting, separated proteins are transferred to a membrane and probed.

Assay [11] relates to CWR22R. The experiment in a line: Inhibition of colony formation in AR-positive human 22Rv1 cells at 1 nM measured after 12 days by crystal violet staining based assay. The assay is classed as functional, cell-based. As to conditions: time 12.0 day.
Assay [12] has as its system LNCaP. The assay can be described thus: Antiproliferative activity against AR-positive harmone sensitive human LNCaP cells assessed as reduction in cell viability measured after 4 days by MTT assay. The class given is functional, cell-based. As to conditions: 96 h.
For assay [13], the system named is CWR22R. The assay can be described thus: Induction of cell cycle arrest in AR-positive human 22Rv1 cells assessed as downregulation of cyclin E expression at 1 to 3 uM measured after 72 hrs by Western blot analysis. The assay is classed as functional, cell-based. The following applies: dose 1-3 µM.
Assay [14] relates to CWR22R. The assay can be described thus: Antiproliferative activity against AR-positive human 22Rv1 cells assessed as reduction in cell viability at 1 nM incubated for 3 days followed by compound washout and measured after 8 days. The assay is classed as functional. As to conditions: 22Rv1, 72 h, time 3 day.
Assay [15] concerns CWR22R. The experiment in a line: Induction of cell cycle arrest in AR-positive human 22Rv1 cells assessed as upregulation of cyclin B1 expression at 1 to 3 uM measured after 72 hrs by Western blot analysis. The class given is functional, cell-based. As to conditions: dose 1-3 µM.
The test system of assay [16] is CWR22R. The assay can be described thus: Induction of cell cycle arrest in AR-positive human 22Rv1 cells assessed as downregulation of CDK6 expression at 1 to 3 uM measured after 72 hrs by Western blot analysis. As to conditions: dose 1-3 µM. The assay is classed as functional, cell-based.
Assay [17] deals with DU-145. The experiment in a line: Antiproliferative activity against AR-negative human castration resistant DU-145 cells assessed as reduction in cell viability measured after 4 days by MTT assay. As to conditions: DU-145, 96 h. The assay is classed as functional, cell-based.
Assay [18] relates to CWR22R. The assay can be described thus: Antiproliferative activity against AR-positive human 22Rv1 cells assessed as reduction in cell viability measured after 4 days by MTT assay. The assay is classed as functional, cell-based. The following applies: 22Rv1, 96 h.
The test system of assay [19] is CWR22R. The experiment in a line: Induction of cell cycle arrest in AR-positive human 22Rv1 cells assessed as accumulation of cells at G2/M phase at 1 to 3 uM measured after 72 hrs by flow cytometry analysis. The assay is classed as functional, cell-based. As to conditions: dose 1-3 µM.
Assay [20] has as its system VCaP. The experiment in a line: Inhibition of c-Myc expression level in human VCap cells at 10 nM incubated for 24 hrs by immunoblotting analysis. The class given is functional, cell-based.
Assay [21] concerns the target Protein cereblon/Bromodomain-containing protein 4 (Homo sapiens) (UniProt O60885+Q96SW2). The assay can be described thus: Protac activity at BRD4/CRBN in human VCaP cells assessed as degradation of BRD4 by measuring downregulation of BRD4 expression level at 10 nM incubated for 24 hrs by immunoblotting analysis. The class given is cell-based.

Active and inactive are the calls of the source. No cut-off for these calls is given here.

The text below walks through data of ChEMBL document CHEMBL5143521, “Identification of a selective BRD4 PROTAC with potent antiproliferative effects in AR-positive prostate cancer based on a dual BET/PLK1 inhibitor” (Eur J Med Chem, 2022).

For orientation: IC50 means the midpoint of a concentration-inhibition curve. By inhibition is commonly meant the share of the control response that was lost under treatment.

Serine/threonine-protein kinase PLK1, sequence (P53350 whole entry): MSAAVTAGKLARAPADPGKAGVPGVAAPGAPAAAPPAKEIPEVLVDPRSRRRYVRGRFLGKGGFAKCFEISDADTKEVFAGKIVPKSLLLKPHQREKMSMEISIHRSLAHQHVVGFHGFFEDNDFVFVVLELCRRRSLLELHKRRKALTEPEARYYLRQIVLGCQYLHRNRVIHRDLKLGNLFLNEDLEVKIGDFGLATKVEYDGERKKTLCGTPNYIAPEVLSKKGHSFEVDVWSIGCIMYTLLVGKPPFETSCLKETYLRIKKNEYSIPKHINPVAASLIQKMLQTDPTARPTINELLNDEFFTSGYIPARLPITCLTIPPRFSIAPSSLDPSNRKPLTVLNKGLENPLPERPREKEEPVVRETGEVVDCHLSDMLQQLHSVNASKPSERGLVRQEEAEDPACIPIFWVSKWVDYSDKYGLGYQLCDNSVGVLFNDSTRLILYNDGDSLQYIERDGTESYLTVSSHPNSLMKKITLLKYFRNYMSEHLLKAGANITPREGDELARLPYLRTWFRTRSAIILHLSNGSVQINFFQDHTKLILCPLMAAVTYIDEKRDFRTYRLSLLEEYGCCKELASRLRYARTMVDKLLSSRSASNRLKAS
Protein cereblon/Bromodomain-containing protein 4 (Homo sapiens), sequence (Q96SW2 whole entry, looked up, other chains not shown): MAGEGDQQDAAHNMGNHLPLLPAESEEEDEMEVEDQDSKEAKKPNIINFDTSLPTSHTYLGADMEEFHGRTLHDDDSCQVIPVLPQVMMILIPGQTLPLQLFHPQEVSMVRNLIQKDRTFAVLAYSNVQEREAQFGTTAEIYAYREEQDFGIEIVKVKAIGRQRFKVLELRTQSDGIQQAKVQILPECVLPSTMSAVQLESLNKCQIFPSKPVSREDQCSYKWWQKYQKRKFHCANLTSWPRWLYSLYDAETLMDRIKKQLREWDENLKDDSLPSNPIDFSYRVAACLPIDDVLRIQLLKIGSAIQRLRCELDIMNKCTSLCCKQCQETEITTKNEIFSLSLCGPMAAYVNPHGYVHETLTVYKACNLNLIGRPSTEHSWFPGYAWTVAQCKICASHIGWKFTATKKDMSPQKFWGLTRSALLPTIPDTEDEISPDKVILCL

Take `CC[C@@H]1c2nnc(C)n2-c2cnc(Nc3ccc(C(=O)NC4CCN(C(=O)CCCCCNc5cccc6c5CN(C5CCC(=O)NC5=O)C6=O)CC4)cc3OC)nc2N1CC1CCCCC1` (some centres not stated): the 50% inhibitory concentration (IC50) in [1] worked out at 0.288 µM; in the assay with MV4-11, 0.01 µM; in [2], 1.21 µM.

For `CC[C@@H]1c2nnc(C)n2-c2cnc(Nc3ccc(C(=O)NC4CCN(CCCCCCCCCCOc5cccc6c5C(=O)N(C5CCC(=O)NC5=O)C6=O)CC4)cc3OC)nc2N1CC1CCCCC1` (some centres not stated), the IC50 stood at 0.284 µM in assay [1], 0.153 µM with MV4-11 and 5.57 µM in assay [2].

On to `CC[C@@H]1c2nnc(C)n2-c2cnc(Nc3ccc(C(=O)NC4CCN(C(=O)CCCCNc5cccc6c5CN(C5CCC(=O)NC5=O)C6=O)CC4)cc3OC)nc2N1CC1CCCCC1` (some centres not stated), for which the half-inhibitory concentration (IC50) in [1] stood at 0.311 µM; in the assay with MV4-11 it was 0.753 µM; in assay [2] it was 1.34 µM.

For `CC[C@@H]1c2nnc(C)n2-c2cnc(Nc3ccc(C(=O)NC4CCN(C)CC4)cc3OC)nc2N1CC1CCCCC1`, the inhibition entry in the assay with DU-145 [3], in the assay with DU-145 [5], in the assay on PC-3 [6] and in the assay with CWR22R [11] was “Active” throughout. Also, the half-maximal inhibitory concentration (IC50) with VCaP [4] turned out to be 0.628 µM; in the assay on PC-3 [7], 1.4 µM; in the assay on LNCaP [12], 1.45 µM; with DU-145 [17] it was 1.47 µM; in the assay with CWR22R [18], 0.58 µM. Further, the inhibition at 0.001 µM in the assay on LNCaP [8] and in the assay on CWR22R [14] was 100% each time. Moreover, the outcome in the assay on CWR22R [9], in the assay on CWR22R [10], with CWR22R [13], in the assay with CWR22R [15], in the assay with CWR22R [16] and in the assay on CWR22R [19] was Active.

Turning to `CC[C@@H]1c2nnc(C)n2-c2cnc(Nc3ccc(C(=O)NC4CCN(CCCCCOc5cccc6c5C(=O)N(C5CCC(=O)NC5=O)C6=O)CC4)cc3OC)nc2N1CC1CCCCC1` (some centres not stated), the IC50 in assay [1] came to 0.151 µM; in the assay on MV4-11 it was 0.021 µM; in [2], 1.12 µM.

Turning to `CC[C@@H]1c2nnc(C)n2-c2cnc(Nc3ccc(C(=O)NC4CCN(C(=O)CCCCOc5cccc6c5C(=O)N(C5CCC(=O)NC5=O)C6=O)CC4)cc3OC)nc2N1CC1CCCCC1` (some centres not stated), the values for the IC50 (in assay [1]; in the assay on MV4-11; in assay [2]) were 0.37 µM, 0.013 µM and 1.19 µM, respectively.

On to `CC[C@@H]1c2nnc(C)n2-c2cnc(Nc3ccc(C(=O)NC4CCN(CCCCNC(=O)COc5cccc6c5C(=O)C(C5CCC(=O)NC5=O)C6=O)CC4)cc3OC)nc2N1CC1CCCCC1` (some centres not stated), for which the IC50 in assay [1] was 0.219 µM; in the assay with MV4-11, 0.359 µM; in [2], 0.31 µM.

For `CC[C@@H]1c2nnc(C)n2-c2cnc(Nc3ccc(C(=O)NC4CCN(CCCCCCCOc5cccc6c5C(=O)N(C5CCC(=O)NC5=O)C6=O)CC4)cc3OC)nc2N1CC1CCCCC1` (some centres not stated), the results for the IC50 (in assay [1]; in the assay on MV4-11; in [2]) were 0.209 µM, 0.008 µM and 1.25 µM, respectively. Moreover, the inhibition result in the assay with VCaP [20] is “Active”. In addition, the outcome in [21] was Active.

`CC[C@@H]1c2nnc(C)n2-c2cnc(Nc3ccc(C(=O)NC4CCN(C(=O)CNc5cccc6c5CN(C5CCC(=O)NC5=O)C6=O)CC4)cc3OC)nc2N1CC1CCCCC1` (some centres not stated): the concentration for half-maximal inhibition (IC50) worked out at 0.259 µM in assay [1], 0.018 µM in the assay with MV4-11 and 1.98 µM in assay [2].

Consider `CC[C@@H]1c2nnc(C)n2-c2cnc(Nc3ccc(C(=O)NC4CCN(CCCCCCCCCCCOc5cccc6c5C(=O)N(C5CCC(=O)NC5=O)C6=O)CC4)cc3OC)nc2N1CC1CCCCC1` (some centres not stated), for which the IC50 in assay [1] came to 0.379 µM; in the assay on MV4-11, 0.188 µM; in assay [2], 3.82 µM.

For `CC[C@@H]1c2nnc(C)n2-c2cnc(Nc3ccc(C(=O)NC4CCN(C(=O)CCCCCOc5cccc6c5C(=O)N(C5CCC(=O)NC5=O)C6=O)CC4)cc3OC)nc2N1CC1CCCCC1` (some centres not stated), the half-maximal inhibitory concentration (IC50) in assay [1] came to 0.435 µM; in the assay with MV4-11, 0.007 µM; in [2], 1.23 µM.

Regarding `CC[C@@H]1c2nnc(C)n2-c2cnc(Nc3ccc(C(=O)NC4CCN(C(=O)CCCCCCC(=O)Nc5cccc6c5CN(C5CCC(=O)NC5=O)C6=O)CC4)cc3OC)nc2N1CC1CCCCC1` (some centres not stated), the half-maximal inhibitory concentration (IC50) in assay [1] came to 0.19 µM; with MV4-11, 0.671 µM; in assay [2], 0.652 µM.

Consider `CC[C@@H]1c2nnc(C)n2-c2cnc(Nc3ccc(C(=O)NC4CCN(CCCCCCOc5cccc6c5C(=O)N(C5CCC(=O)NC5=O)C6=O)CC4)cc3OC)nc2N1CC1CCCCC1` (some centres not stated), for which the values for the IC50 (in assay [1]; with MV4-11; in assay [2]) were 0.121 µM, 0.184 µM and 2.43 µM, respectively.

Take `CC[C@@H]1c2nnc(C)n2-c2cnc(Nc3ccc(C(=O)NC4CCN(C(=O)CCCCCCOc5cccc6c5C(=O)N(C5CCC(=O)NC5=O)C6=O)CC4)cc3OC)nc2N1CC1CCCCC1` (some centres not stated): the figures for the half-inhibitory concentration (IC50) (in assay [1]; in the assay with MV4-11; in [2]) were 0.658 µM, 0.01 µM and 1.84 µM, respectively.

In the case of `CC[C@@H]1c2nnc(C)n2-c2cnc(Nc3ccc(C(=O)NC4CCN(C(=O)CCCOc5cccc6c5C(=O)N(C5CCC(=O)NC5=O)C6=O)CC4)cc3OC)nc2N1CC1CCCCC1` (some centres not stated), the IC50 was found to be 0.738 µM in [1], 0.018 µM in the assay with MV4-11 and 0.788 µM in assay [2].

With `CC[C@@H]1c2nnc(C)n2-c2cnc(Nc3ccc(C(=O)NC4CCN(CCCCCCCCCOc5cccc6c5C(=O)N(C5CCC(=O)NC5=O)C6=O)CC4)cc3OC)nc2N1CC1CCCCC1` (some centres not stated), the values for the IC50 (in assay [1]; with MV4-11; in assay [2]) were 0.225 µM, 0.036 µM and 2.13 µM, respectively.

Take `CC[C@@H]1c2nnc(C)n2-c2cnc(Nc3ccc(C(=O)NC4CCN(CCCCCCCCOc5cccc6c5C(=O)N(C5CCC(=O)NC5=O)C6=O)CC4)cc3OC)nc2N1CC1CCCCC1` (some centres not stated): the concentration for half-maximal inhibition (IC50) in [1] was 0.344 µM; with MV4-11 it was 0.085 µM; in assay [2], 5.14 µM.
